Assay results as given in ChEMBL document CHEMBL6083273, “Targeting Periplakin of Novel Benzenesulfonamides as Highly Selective Agonists for the Treatment of Vitiligo” (2024).

Assays:
Format in all cases: functional
Danio rerio [1] = species: Danio rerio; assay: Effect on tryptophan metabolism in zebrafish embryo assessed as ILA metabolite level at 10 uM by LC/MS analysis
Danio rerio [2] = species: Danio rerio; assay: Effect on tryptophan metabolism in zebrafish embryo assessed as 5-HIAA metabolite level at 10 uM by LC/MS analysis
Danio rerio [3] = species: Danio rerio; assay: Effect on tryptophan metabolism in zebrafish embryo assessed as AA metabolite level at 10 uM by LC/MS analysis
Danio rerio [4] = species: Danio rerio; assay: Effect on tryptophan metabolism in zebrafish embryo assessed as IGA metabolite level at 10 uM by LC/MS analysis
Danio rerio [5] = species: Danio rerio; assay: Effect on tryptophan metabolism in zebrafish embryo assessed as LE metabolite level at 10 uM by LC/MS analysis
Danio rerio [6] = species: Danio rerio; assay: Effect on tryptophan metabolism in zebrafish embryo assessed as 5-HTOL metabolite level at 10 uM by LC/MS analysis
Danio rerio [7] = species: Danio rerio; assay: Effect on tryptophan metabolism in zebrafish embryo assessed as NA metabolite level at 10 uM by LC/MS analysis
Danio rerio [8] = species: Danio rerio; assay: Effect on tryptophan metabolism in zebrafish embryo assessed as 3-HK metabolite level at 10 uM by LC/MS analysis
Danio rerio [9] = species: Danio rerio; assay: Effect on tryptophan metabolism in zebrafish embryo assessed as Trp metabolite level at 10 uM by LC/MS analysis
Danio rerio [10] = species: Danio rerio; assay: Effect on tryptophan metabolism in zebrafish embryo assessed as NAS metabolite level at 10 uM by LC/MS analysis
Danio rerio [11] = species: Danio rerio; assay: Effect on tryptophan metabolism in zebrafish embryo assessed as indole metabolite level at 10 uM by LC/MS analysis
Danio rerio [12] = species: Danio rerio; assay: Effect on tryptophan metabolism in zebrafish embryo assessed as IAA metabolite level at 10 uM by LC/MS analysis
Danio rerio [13] = species: Danio rerio; assay: Effect on tryptophan metabolism in zebrafish embryo assessed as 3-HAA metabolite level at 10 uM by LC/MS analysis
Danio rerio [14] = species: Danio rerio; assay: Effect on tryptophan metabolism in zebrafish embryo assessed as 5-HTP metabolite level at 10 uM by LC/MS analysis
Danio rerio [15] = species: Danio rerio; assay: Effect on tryptophan metabolism in zebrafish embryo assessed as Xa metabolite level at 10 uM by LC/MS analysis
Danio rerio [16] = species: Danio rerio; assay: Effect on tryptophan metabolism in zebrafish embryo assessed as IPA metabolite level at 10 uM by LC/MS analysis
Danio rerio [17] = species: Danio rerio; assay: Effect on tryptophan metabolism in zebrafish embryo assessed as ICA metabolite level at 10 uM by LC/MS analysis
Danio rerio [18] = species: Danio rerio; assay: Induction of melanogenesis in zebrafish treated for 24 hrs by absorbance based assay (reference value: 98.2 to 100.3 %)
Danio rerio [19] = species: Danio rerio; assay: Effect on tryptophan metabolism in zebrafish embryo assessed as IA metabolite level at 10 uM by LC/MS analysis
Danio rerio [20] = species: Danio rerio; assay: Effect on tryptophan metabolism in zebrafish embryo assessed as indican metabolite level at 10 uM by LC/MS analysis
Danio rerio [21] = species: Danio rerio; assay: Effect on tryptophan metabolism in zebrafish embryo assessed as IAN metabolite level at 10 uM by LC/MS analysis
Danio rerio [22] = species: Danio rerio; assay: Effect on tryptophan metabolism in zebrafish embryo assessed as skatole metabolite level at 10 uM by LC/MS analysis

Structure (SMILES): Cc1cc(-c2ccc([C@H](C)Nc3nccc(NS(=O)(=O)c4ccc([N+](=O)[O-])cc4)n3)cc2)ccc1F
- Activity (Danio rerio [1]): 105.98 nmol/kg
- Activity (Danio rerio [2]): 55.63 nmol/kg
- Activity (Danio rerio [3]): 14.25 nmol/kg
- Activity (Danio rerio [4]): 2.84 nmol/kg
- Activity (Danio rerio [5]): 32.11 nmol/kg
- Activity (Danio rerio [6]): 0.03 nmol/kg
- Activity (Danio rerio [7]): 2107.11 nmol/kg
- Activity (Danio rerio [8]): 93.63 nmol/kg
- Activity (Danio rerio [9]): 206300.5 nmol/kg
- Activity (Danio rerio [10]): 0.06 nmol/kg
- Activity (Danio rerio [11]): 788.07 nmol/kg
- Activity (Danio rerio [12]): 3.45 nmol/kg
- Activity (Danio rerio [13]): 3.54 nmol/kg
- Activity (Danio rerio [14]): 54.62 nmol/kg
- Activity (Danio rerio [15]): 430.99 nmol/kg
- Activity (Danio rerio [16]): 19.38 nmol/kg
- Activity (Danio rerio [17]): 38.27 nmol/kg
- Activity (Danio rerio [18]): 108.21%
- Activity (Danio rerio [19]): 22 nmol/kg
- Activity (Danio rerio [20]): 0.95 nmol/kg
- Activity (Danio rerio [21]): 17.69 nmol/kg
- Activity (Danio rerio [22]): 582.83 nmol/kg
